Test [1] has as its system W2 strain. Briefly: parasite proliferation assay in infected red blood cells (SYBR Green I), W2 strain. Format: cell-based. As to conditions: Erythrocyte. From the text: Compounds of the invention can be assayed to measure their capacity to inhibit proliferation of parasitemia in infected red blood cells. The proliferation is quantified by the addition of SYBR Green I (INVITROGEN)® dye which has a high affinity for double stranded DNA.

Test [2] relates to 3D7 P. falciparum strain. The test can be described thus: parasite proliferation assay in infected red blood cells (SYBR Green I). The conditions noted are these: Plasmodium falciparum, 3D7, Erythrocyte, 3D7 strain; read-out: EC50 3D7 strain. It is filed as cell-based, Plasmodium falciparum. An outline of the steps:
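P. falciparum 3D7 grown in O+ human erythrocytes to 3–8% parasitemia and exposed to compounds. Proliferation read as the increase in parasite DNA. Detection used SYBR Green I in saponin/triton-X/EDTA lysis buffer, with overnight lysis at room temperature.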

Regarding `Cc1ccc(Nc2c(-c3ccc(F)cc3)nc3n2CCN(C(=O)CNC(=N)N)C3)cc1` [Compound 167], the EC50 in test [1] came to 145 nM; in test [2] it was 180 nM.

With `Cc1ccc(Nc2c(-c3ccc(F)cc3)nc3n2CC(C)CC3)cc1` (centres unmarked) [Compound 753], the values for the EC50 in test [1] (Plasmodium falciparum) and in test [2] were 592 nM and 376 nM, respectively.

On to `O=C(NCC(=O)N1CCn2c(nc(-c3ccc(F)cc3)c2Nc2ccc(F)cc2)C1)OCc1ccccc1` [Compound 49], for which the EC50 in test [1] turned out to be 1900 nM; in test [2], 2290 nM.

Turning to `Cc1ccc(Nc2c(-c3ccc(F)c(F)c3)nc3n2CCNC3)cc1` [Compound 278], the figures for the half-maximal effective concentration (EC50) in test [1] and in test [2] were 269 nM and 210 nM, respectively.

Regarding `N#Cc1ccc(Nc2c(-c3ccc(F)cc3)nc3n2CCNC3)cc1` [Compound 249], the EC50 in test [1] is 5060 nM; in test [2], 5390 nM.

As to `Cc1ccc(Nc2c(-c3ccc(F)cc3)nc3n2CCNC3)cc1` [Example 113, 2-(4-fluorophenyl)-N-p-tolyl-5,6,7,8-tetrahydroimidazo[1,2-a]pyrazin-3-amine], the EC50 in test [1] turned out to be 146 nM; in test [2], 150 nM.

For the compound `CC(C)CNCC(=O)N1CCn2c(nc(-c3ccc(F)cc3)c2Nc2ccc(F)cc2)C1` [Compound 69], the EC50 in test [1] amounted to 94 nM; in test [2], 80 nM.

For `Cc1ccc(Nc2c(-c3ccc(F)cc3)nc3n2CCN(C(=O)[C@@H](NC(=O)CCOCCOCCOCCOCCNC(=O)CCCCC2SCC4NC(=O)NC42)c2ccccc2)C3)cc1` (some centres unmarked) [Compound 298], the values for the EC50 in test [1] and in test [2] were 193 nM and 610 nM, respectively.

With `CN[C@H](C(=O)N1CCn2c(nc(-c3ccc(F)cc3)c2Nc2ccc(C)cc2)C1)C(C)C` [Compound 376], the EC50 amounted to 79 nM in test [1] and 60 nM in test [2].

For the compound `Cc1cc(Nc2c(-c3ccc(F)cc3)nc3n2CCN(C(=O)C(C)(C)N)C3)ccc1Cl` [Compound 629], the EC50 in test [1] (Plasmodium falciparum) was determined as 23 nM; in test [2], 17 nM.

Consider `CCCCC(=O)Nc1ccc(C[C@H](N)C(=O)N2CCn3c(nc(-c4cccc(F)c4)c3Nc3ccc(F)cc3)C2)cc1` [Compound 260], for which the EC50 in test [1] is 5010 nM; in test [2] it was 7640 nM.

`O=C(CN1CCCC(F)(F)C1)N1CCn2c(nc(-c3ccc(F)cc3)c2Nc2ccc(Cl)cc2)C1` [Compound 76]: the EC50 in test [1] is 61 nM; in test [2] it was 60 nM.

Turning to `Cc1ccc(Nc2c(-c3ccc(F)cc3)nc3n2CCN(C(=O)[C@H](N)c2ccccc2)C3)cc1` [Compound 97], the 50% effective concentration (EC50) was determined as 21 nM in test [1] and 40 nM in test [2].

Turning to `CN1Cc2nc(-c3ccc(F)cc3)c(Nc3ccc(Cl)c(F)c3)n2C(C)(C)C1=O` [Compound 615], the concentration for a half-maximal effect (EC50) in test [1] (Plasmodium falciparum) came out at 5610 nM; in test [2] it was 6410 nM.

Regarding `Cc1cc(Nc2c(-c3ccc(F)cc3)nc3n2C(C)(C)C(=O)N(C)C3)ccc1F` [Compound 617], the figures for the EC50 in test [1] (Plasmodium falciparum) and in test [2] were 6880 nM and 6330 nM, respectively.

For `CC(C)(N)C(=O)N1CCn2c(nc(-c3ccc(F)cc3)c2Nc2cccc(Cl)c2)C1` [Compound 639], the 50% effective concentration (EC50) in test [1] (Plasmodium falciparum) turned out to be 93 nM; in test [2], 82 nM.

`Cc1ccc(Nc2c(-c3ccc(F)cc3)nc3n2CCN(C(=O)C(N)CC(F)(F)F)C3)cc1` (centres unmarked) [Compound 142]: the EC50 in test [1] amounted to 120 nM; in test [2], 80 nM.

Turning to `CN1CCN(Cc2c(-c3ccc(F)cc3)nc3n2CCN(C(=O)CN)C3(C)C)CC1` [Compound 698], the results for the EC50 in test [1] (Plasmodium falciparum) and in test [2] were 9020 nM and 8810 nM, respectively.

Turning to `CN1CCn2c(nc(-c3ccc(F)cc3)c2Nc2ccc(F)c(Cl)c2)C1(C)C` [Compound 627], the EC50 was found to be 194 nM in test [1] (Plasmodium falciparum) and 170 nM in test [2].

With `Fc1cccc(-c2nc3n(c2Nc2ccc(Cl)c(F)c2)CCNC3)c1` [Compound 217], the EC50 in test [1] stood at 106 nM; in test [2], 130 nM.

On to `NCC(=O)N1CCn2c(nc(-c3ccc(F)cc3O)c2Nc2ccc(F)cc2)C1` [Compound 51], for which the half-maximal effective concentration (EC50) in test [1] was found to be 62 nM; in test [2], 70 nM.

Take `Cc1ccc(Nc2c(-c3ccc(F)cc3)nc3n2CCN(C(=O)[C@H](Cc2cccc(N)c2)NC(=O)OC(C)(C)C)C3)cc1` [Compound 246]: the values for the EC50 in test [1] and in test [2] were 1790 nM and 3880 nM, respectively.

Consider `CC(C)(C)CC(C)(C)Nc1c(-c2ccccc2Br)nc2ccccn12` [Compound 743], for which the concentration for a half-maximal effect (EC50) in test [1] (Plasmodium falciparum) turned out to be 3000 nM; in test [2], 2680 nM.

With `CCC[C@H](NC)C(=O)N1CCn2c(nc(-c3ccc(F)cc3)c2Nc2ccc(C)cc2)C1` [Compound 392], the 50% effective concentration (EC50) in test [1] is 39 nM; in test [2], 30 nM.

Turning to `COCCCNCC(=O)N1CCn2c(nc(-c3ccc(F)cc3)c2Nc2ccc(C)cc2)C1` [Compound 310], the values for the EC50 in test [1] and in test [2] were 397 nM and 520 nM, respectively.

`Cc1ccc(Nc2c(-c3ccc(F)cc3)nc3n2CC(=O)NC3(C)C)cc1F` [Compound 598]: the EC50 is 74 nM in test [1] (Plasmodium falciparum) and 40 nM in test [2].

For `Cc1ccc(Nc2c(-c3ccc(F)cc3)nc3n2CCN(C(=O)C2(O)CCCCC2)C3)cc1` [Compound 117], the EC50 in test [1] worked out at 1190 nM; in test [2], 1260 nM.

Take `N[C@H](Cc1ccccc1)C(=O)N1CCn2c(nc(-c3ccc(F)cc3)c2Nc2ccc(F)cc2)C1` [Compound 20]: the EC50 in test [1] was 121 nM; in test [2], 110 nM.

For the compound `CCCNC(=O)C[C@H](NC(=O)OC(C)(C)C)C(=O)N1CCn2c(nc(-c3cccc(F)c3)c2Nc2ccc(Cl)c(F)c2)C1` [Compound 247], the EC50 was 3940 nM in test [1] and 1420 nM in test [2].

For the compound `CC1(C)NC(=O)Cn2c1nc(-c1cccc(F)c1)c2Nc1ccc(Cl)c(F)c1` [Compound 605], the values for the EC50 in test [1] (Plasmodium falciparum) and in test [2] were 57 nM and 40 nM, respectively.

Consider `CC(C)(C)OC(=O)N[C@@H](CC(=O)O)C(=O)N1CCn2c(nc(-c3cccc(F)c3)c2Nc2ccc(F)cc2)C1` [Compound 241], for which the EC50 amounted to 2360 nM in test [1] and 5270 nM in test [2].

For the compound `CC(C)(C)Nc1c(-c2ccc(F)cc2)nc2n1CCNC2` [Compound 297, N-tert-butyl-2-(4-fluorophenyl)-5,6,7,8-tetrahydroimidazo[1,2-a]pyrazin-3-amine], the concentration for a half-maximal effect (EC50) in test [1] came to 8500 nM; in test [2] it was 5290 nM.

In the case of `COc1ccc(NC(C)(C)C(=O)N2CCn3c(nc(-c4ccc(F)cc4)c3Nc3ccc(C)cc3)C2)cc1` [Compound 364], the figures for the concentration for a half-maximal effect (EC50) in test [1] and in test [2] were 3740 nM and 4950 nM, respectively.

Consider `O=C(c1ccc2ncccc2c1)N1CCn2c(nc(-c3ccc(F)cc3)c2Nc2ccc(Cl)c(F)c2)C1` [Compound 370], for which the figures for the EC50 in test [1] and in test [2] were 8340 nM and 4350 nM, respectively.

Turning to `CC(C)(N)C(=O)N1CCn2c(nc(-c3ccc(F)cc3)c2Nc2ccc(C(F)(F)F)c(Cl)c2)C1` [Compound 633], the EC50 stood at 331 nM in test [1] (Plasmodium falciparum) and 528 nM in test [2].

`CC(C)(N)C(=O)N1CCn2c(nc(-c3cc(F)cc(F)c3)c2Nc2ccc(F)cc2)C1` [Compound 13]: the values for the EC50 in test [1] and in test [2] were 137 nM and 260 nM, respectively.

`Cc1ccc(Nc2c(-c3ccc(F)cc3)nc3n2CCN(C(=O)C(O)c2ccc(F)cc2)C3)cc1` (centres unmarked) [Compound 107]: the EC50 in test [1] and in test [2] was 10 nM throughout.

With `CC(C)(N)C(=O)N1CCn2c(nc(-c3ccc(F)cc3)c2Nc2cccnc2)C1` [Compound 16], the EC50 worked out at 3320 nM in test [1] and 14100 nM in test [2].

Consider `Cc1ccc(Nc2c(-c3ccc(F)cc3)nc3n2CCN(C(=O)CN)C3(C)C)cc1C` [Compound 654], for which the concentration giving a half-maximal response (EC50) in test [1] (Plasmodium falciparum) was determined as 6 nM; in test [2], 5 nM.

Turning to `CC(C)(O)CC(=O)N1CCn2c(nc(-c3ccc(F)cc3)c2Nc2ccc(C#N)cc2)C1` [Compound 265], the EC50 in test [1] was found to be 1580 nM; in test [2], 1350 nM.

As to `CC(C)(N)C(=O)N1CCn2c(nc(-c3ccc(F)cc3)c2Nc2cc(F)cc(F)c2)C1` [Compound 66], the EC50 in test [1] is 244 nM; in test [2] it was 220 nM.

With `Cc1ccc(Nc2c(-c3cccc(F)c3)nc3n2C(C)(C)CN(C(=O)[C@@H](O)Cc2ccccc2)C3)cc1` [Compound 599], the figures for the EC50 in test [1] (Plasmodium falciparum) and in test [2] were 134 nM and 120 nM, respectively.

For `Cc1ccc(Nc2c(-c3ccc(F)cc3)nc3n2CCN(C(=O)C(O)c2ccc(Br)cc2F)C3)cc1` (centres unmarked) [Compound 132], the EC50 came to 82 nM in test [1] and 100 nM in test [2].

On to `CC1(C)c2nc(-c3ccc(F)cc3)c(Nc3ccc(-c4ccccc4)cc3)n2CCN1C(=O)CN` [Compound 647], for which the 50% effective concentration (EC50) in test [1] (Plasmodium falciparum) came to 250 nM; in test [2] it was 279 nM.

Take `CC1(C)c2nc(-c3ccc(F)cc3)c(NC3CCC(C(F)(F)F)CC3)n2CCN1C(=O)CN` (centres unmarked) [Compound 662]: the EC50 in test [1] (Plasmodium falciparum) is 33 nM; in test [2], 38 nM.

As for `CC(C)(O)CC(=O)N1CCn2c(nc(-c3cccc(F)c3)c2Nc2ccc(Cl)c(F)c2)C1` [Compound 234], the EC50 in test [1] amounted to 111 nM; in test [2], 130 nM.

With `Cc1ccc(CC(=O)N2CCn3c(nc(-c4ccc(F)cc4)c3Nc3ccc(C)cc3)C2)cc1` [Compound 232], the results for the EC50 in test [1] and in test [2] were 44 nM and 50 nM, respectively.

`Cc1ccc(Nc2c(-c3ccc(F)cc3)nc3n2CCCC3)cc1` [Compound 750]: the EC50 in test [1] (Plasmodium falciparum) was found to be 4960 nM; in test [2] it was 4770 nM.

For `Cc1ccc(Nc2c(-c3ccc(F)cc3)nc3ccccn23)cc1` [Compound 751], the concentration for a half-maximal effect (EC50) in test [1] (Plasmodium falciparum) is 4550 nM; in test [2] it was 1790 nM.

Consider `Cc1ccc(Nc2c(-c3ccc(F)cc3)nc3n2CCN(C(=O)[C@@H](N)CS(C)(=O)=O)C3)cc1` [Compound 288], for which the EC50 in test [1] was 1390 nM; in test [2], 890 nM.

Regarding `CCCCCNC(=O)C[C@H](N)C(=O)N1CCn2c(nc(-c3cccc(F)c3)c2Nc2ccc(F)cc2)C1` [Compound 257], the figures for the EC50 in test [1] and in test [2] were 7000 nM and 6680 nM, respectively.

Turning to `NCC(=O)N1CCn2c(nc(-c3ccc(F)cc3)c2Nc2ccc(C(F)(F)F)cc2)C1` [Compound 73], the EC50 in test [1] was 59 nM; in test [2], 80 nM.

One may read the EC50 as the concentration needed to bring the measured effect to its halfway point.
